The record followed here is ChEMBL document CHEMBL5042490, “Lead derivatization of ethyl 6-bromo-2-((dimethylamino)methyl)-5-hydroxy-1-phenyl-1H-indole-3-carboxylate and 5-bromo-2-(thiophene-2-carboxamido) benzoic acid as FabG inhibitors targeting ESKAPE pathogens” (Eur J Med Chem, 2022).

Assay [1] is described as follows: Inhibition of Klebsiella pneumoniae FabG2 assessed as reduction in Acetoacetyl-coenzyme-A substrate in presence of NADH preincubated for 5 mins followed by substrate addition and measured for 6 to 10 mins by spectrophotometric analysis.
Assay [2] is described as follows: Inhibition of Pseudomonas aeruginosa FabG assessed as reduction in Acetoacetyl-coenzyme-A substrate in presence of NADPH preincubated for 5 mins followed by substrate addition and measured for 6 to 10 mins by spectrophotometric analysis.
A short description of assay [3]: Inhibition of Escherichia coli FabG assessed as reduction in Acetoacetyl-coenzyme-A substrate in presence of NADPH preincubated for 5 mins followed by substrate addition and measured for 6 to 10 mins by spectrophotometric analysis.
The nature of assay [4]: Inhibition of Acinetobacter baumannii FabG assessed as reduction in Acetoacetyl-coenzyme-A substrate in presence of NADPH preincubated for 5 mins followed by substrate addition and measured for 6 to 10 mins by spectrophotometric analysis.
A short description of assay [5]: Inhibition of Salmonella typhimurium FabG assessed as reduction in Acetoacetyl-coenzyme-A substrate in presence of NADPH preincubated for 5 mins followed by substrate addition and measured for 6 to 10 mins by spectrophotometric analysis. On the set-up: species or system Salmonella enterica subsp. enterica serovar Typhimurium.
The nature of assay [6]: Inhibition of Klebsiella pneumoniae FabG1 assessed as reduction in Acetoacetyl-coenzyme-A substrate in presence of NADPH preincubated for 5 mins followed by substrate addition and measured for 6 to 10 mins by spectrophotometric analysis.
The nature of assay [7]: Inhibition of Staphylococcus aureus FabG assessed as reduction in Acetoacetyl-coenzyme-A substrate in presence of NADPH preincubated for 5 mins followed by substrate addition and measured for 6 to 10 mins by spectrophotometric analysis.
Assay [8] in a line: Inhibition of Mycobacterium tuberculosis FabG assessed as reduction in Acetoacetyl-coenzyme-A substrate in presence of NADPH preincubated for 5 mins followed by substrate addition and measured for 6 to 10 mins by spectrophotometric analysis.

A word on the IC50: it is the concentration at which inhibition is half-maximal. As for `O=C(O)c1cc(Br)ccc1NC(=O)c1cccnc1Cl`, the IC50 result in assay [1] is “Not Active”; in assay [2], “Not Active”; in assay [3] (read-out: IC50), 15.9 µM; in assay [4], “Not Active”; in assay [5] (read-out: IC50) it was 51 µM; in assay [6], “Not Active”. In addition, the IC50 result in assay [7] is “Not Active”.
For the compound `Cc1c(Br)cccc1C(=O)Nc1ccc(Br)cc1C(=O)O`, the IC50 entry in assay [1] was “Not Active”; in assay [2], “Not Active”; in assay [3] it was “Not Active”; in assay [4] (read-out: IC50), 36.7 µM; in assay [5], “Not Active”; in assay [6], “Not Active”. For the same compound, the IC50 result in assay [7] is “Not Active”.
As to `CCOC(=O)c1c(CSc2nc3ccccc3o2)n(C)c2cc(Br)c(O)cc12`, the IC50 result in assay [1] was “Not Active”; in assay [2], “Not Active”; in assay [3] (read-out: IC50), 18.6 µM; in assay [4] it was “Not Active”; in assay [5], “Not Active”; in assay [6] it was “Not Active”. In assay [7], the IC50 result is listed as “Not Active”.
On to `CCOC(=O)c1c(CSc2nc3ccccc3s2)n(Cc2ccccc2)c2cc(Br)c(O)cc12`, for which the IC50 result was “Not Active” in assay [1]; “Not Active” in assay [2]; 20.8 µM in assay [3] (read-out: IC50); “Not Active” in assay [4]; “Not Active” in assay [5]; “Not Active” in assay [8]. Moreover, the IC50 entry in assay [6] and in assay [7] was “Not Active” throughout.
As to `CCOC(=O)c1c(CSc2nc3ccccc3s2)n(C)c2cc(Br)c(O)cc12`, the IC50 entry in assay [1] is “Not Active”; in assay [2] it was “Not Active”; in assay [3] (read-out: IC50) it was 31.8 µM; in assay [4], “Not Active”; in assay [5] it was “Not Active”; in assay [6], “Not Active”. Besides, the IC50 result in assay [7] is given as “Not Active”.
In the case of `O=C(Nc1ccc(Br)cc1C(=O)O)c1cccc(I)c1`, the IC50 result in assay [1] is “Not Active”; in assay [2] it was “Not Active”; in assay [3] (read-out: IC50) it was 21.6 µM; in assay [4] (read-out: IC50), 15.7 µM; in assay [5] (read-out: IC50), 37.4 µM; in assay [8] (read-out: IC50) it was 14.7 µM. Besides, the IC50 entry in assay [6] and in assay [7] was “Not Active” throughout.
As to `O=C(CCBr)Nc1ccc(Br)cc1C(=O)O`, the IC50 entry in assay [1] was “Not Active”; in assay [2] it was “Not Active”; in assay [3] it was “Not Active”; in assay [4], “Not Active”; in assay [5], “Not Active”; in assay [8] (read-out: IC50), 78.3 µM. Also, the IC50 entry in assay [6] and in assay [7] was “Not Active” throughout.
